{
  "source": "patent US20230026259A1",
  "about": "“CA2 COMPOSITIONS AND METHODS FOR TUNABLE REGULATION” (Obsidian Therapeutics, Inc., priority 2019, published 2023)",
  "key": {"[1]": {"tested_on": "human primary T cells", "assay": "IL15-dependent expansion: T cell numbers and CD4/CD8 ratio by flow cytometry", "format": "cell-based", "settings": "continuous Acetazolamide in culture, 10 days", "protocol": "To test IL15-dependent expansion, beads were removed on day 10 and cells were washed. […] The T cell numbers (Table 30) and the change in CD4/CD8 ratio (Table 31) were determined by flow cytometry."}, "[2]": {"tested_on": "T cells", "assay": "CD40L expression of CA2 regulated CD40L constructs in T cells by FACS (dose response, time course)", "format": "cell-based", "settings": "24 hours", "text": "CD40L constructs regulated by Carbonic anhydrase DDs were generated and cloned into lentiviral vectors. Purified T cells were thawed and cultured with aCD3 aCD28 Dynabeads (in the ratio of 3 beads to 1 T cell).\nThe constructs were transduced in T cells the next day. […]"}, "[3]": {"assay": "Plasma concentration of acetazolamide after single and repeated oral doses", "format": "in vivo, mice", "settings": "oral 200 mg/kg, up to 100 hr"}, "[4]": {"tested_on": "NIH3T3 cells", "assay": "Dose response of saturation library constructs to Acetazolamide or Celecoxib, GFP MFI by FACS", "format": "cell-based", "settings": "Acetazolamide vs Celecoxib, 24 hours", "text": "The MFI values obtained with Acetazolamide were much higher than the MFIs obtained with Celecoxib treatment."}, "[5]": {"tested_on": "Activated T cells from human donor", "assay": "Cell surface CAR expression of CA2 regulated CAR constructs (CD19-Fc staining)", "format": "cell-based", "settings": "T cells, 10 μM ligand overnight, day 7 and 9", "protocol": "CA2 DD described herein were operably linked to CARs to generate tunable CAR constructs. Activated T cells from human donor were transduced with 10 μL of lentivirus for indicated constructs. […] Cell surface CAR expression was detected the following day by staining the cells with 10 ug/mL CD19-Fc followed by an anti-human-BV421 conjugated secondary antibody. Histograms were plotted from a live cell gate. Similar experiments were also performed at day 8 and the cells were harvested at day 9. The data are shown in Table 20 as percentage CAR positive cells. The stabilization ratio was also calculated and is included in Table 20 as SR.\nActivated T cells from human donor were transduced with 10 μL of lentivirus for indicated constructs. […] Cell surface CAR expression was detected the following day by staining the cells with 10 ug/mL CD19-Fc followed by an anti-human-BV421 conjugated secondary antibody. The percent of ligand induced CAR+ cells are plotted from a live cell gate relative to vehicle treated negative control cells."}, "[6]": {"assay": "Body weights after repeated daily doses of acetazolamide", "protocol": "Body weights were measured for up to 12 days post daily repeated doses on days 0-4 and 8-11 (data not shown).\nDose responsiveness of OT-002175 was tested by measuring total flux in mice receiving repeated ligand dosing for up to 32 days post tumor implant (data not shown)."}, "[7]": {"settings": "CD4+ T cells with OT-001990, Acetazolamide 0.01 μM"}, "[8]": {"settings": "CD4+ T cells with OT-001990, Acetazolamide 0.2 μM"}, "[9]": {"settings": "CD4+ T cells with OT-001990, Acetazolamide 0.8 μM"}, "[10]": {"settings": "CD4+ T cells with OT-001990, Acetazolamide 3.1 μM"}, "[11]": {"settings": "CD4+ T cells with OT-001990, Acetazolamide 12.5 μM"}, "[12]": {"settings": "CD4+ T cells with OT-001990, Acetazolamide 50 μM"}, "[13]": {"settings": "CD8+ T cells with OT-001990, Acetazolamide 0.01 μM"}, "[14]": {"settings": "CD8+ T cells with OT-001990, Acetazolamide 0.05 μM"}, "[15]": {"settings": "CD8+ T cells with OT-001990, Acetazolamide 0.2 μM"}, "[16]": {"settings": "CD8+ T cells with OT-001990, Acetazolamide 0.8 μM"}, "[17]": {"settings": "CD8+ T cells with OT-001990, Acetazolamide 3.1 μM"}, "[18]": {"settings": "CD8+ T cells with OT-001990, Acetazolamide 12.5 μM"}, "[19]": {"settings": "CD8+ T cells with OT-001990, Acetazolamide 50 μM"}},
  "data": [
    {"smiles": "CC(=O)Nc1nnc(S(N)(=O)=O)s1", "note": "[Acetazolamide, reference compound]", "values": [
      {"measurement": "T cell expansion", "setting": "[1]", "result": 3.6, "unit": "fold"},
      {"measurement": "CD40L MFI", "setting": "[2]; [7]", "result": 112},
      {"measurement": "Percentage CD40L positive cells", "setting": "[2]; [7]", "result": 4.13, "unit": "%"},
      {"measurement": "Percentage CD40L positive cells", "setting": "[2]; CD4+ T cells with OT-001990, Acetazolamide 0.05 μM", "result": 5.44, "unit": "%"},
      {"measurement": "CD40L MFI", "setting": "[2]; [8]", "result": 185},
      {"measurement": "Percentage CD40L positive cells", "setting": "[2]; [8]", "result": 10.3, "unit": "%"},
      {"measurement": "CD40L MFI", "setting": "[2]; [9]", "result": 481},
      {"measurement": "Percentage CD40L positive cells", "setting": "[2]; [9]", "result": 45.6, "unit": "%"},
      {"measurement": "CD40L MFI", "setting": "[2]; [10]", "result": 840},
      {"measurement": "Percentage CD40L positive cells", "setting": "[2]; [10]", "result": 69.3, "unit": "%"},
      {"measurement": "CD40L MFI", "setting": "[2]; [11]", "result": 2783},
      {"measurement": "Percentage CD40L positive cells", "setting": "[2]; [11]", "result": 90.3, "unit": "%"},
      {"measurement": "CD40L MFI", "setting": "[2]; [12]", "result": 3728},
      {"measurement": "Percentage CD40L positive cells", "setting": "[2]; [12]", "result": 91.1, "unit": "%"},
      {"measurement": "CD40L MFI", "setting": "[2]; [13]", "result": 105},
      {"measurement": "Percentage CD40L positive cells", "setting": "[2]; [13]", "result": 0.59, "unit": "%"},
      {"measurement": "CD40L MFI", "setting": "[2]; [14]", "result": 104},
      {"measurement": "Percentage CD40L positive cells", "setting": "[2]; [14]", "result": 0.44, "unit": "%"},
      {"measurement": "CD40L MFI", "setting": "[2]; [15]", "result": 136},
      {"measurement": "Percentage CD40L positive cells", "setting": "[2]; [15]", "result": 1.48, "unit": "%"},
      {"measurement": "CD40L MFI", "setting": "[2]; [16]", "result": 307},
      {"measurement": "Percentage CD40L positive cells", "setting": "[2]; [16]", "result": 25.2, "unit": "%"},
      {"measurement": "CD40L MFI", "setting": "[2]; [17]", "result": 380},
      {"measurement": "Percentage CD40L positive cells", "setting": "[2]; [17]", "result": 41.2, "unit": "%"},
      {"measurement": "CD40L MFI", "setting": "[2]; [18]", "result": 1599},
      {"measurement": "Percentage CD40L positive cells", "setting": "[2]; [18]", "result": 77.2, "unit": "%"},
      {"measurement": "CD40L MFI", "setting": "[2]; [19]", "result": 2184},
      {"measurement": "Percentage CD40L positive cells", "setting": "[2]; [19]", "result": 80.7, "unit": "%"},
      {"measurement": "daily 1 hr Cmax values after repeated doses", "setting": "[3]", "result": "do not elevate daily 1 hr Cmax values"},
      {"measurement": "MFI values obtained with one ligand compared with the other", "setting": "[4]", "result": "much higher"},
      {"measurement": "CAR regulation compared between ligands", "setting": "[5]", "result": "Greater CAR regulation"},
      {"measurement": "effects on body weight in efficacy study", "setting": "[6]; 30, 100 and 200 mg/kg acetazolamide", "result": "comparable effects on body weight"},
      {"measurement": "body weight changes from dosing", "setting": "[6]; oral 200 mg/kg, daily repeated doses on days 0-4 and 8-11", "result": "begin to level off by the end of the first week of daily doses"}
    ]}
  ]
}
